According to article PMC7316490, “Dihydrofolate Reductase Is a Valid Target for Antifungal Development in the Human Pathogen Candida albicans” (mSphere, 2020):
pIC50: −log10 of the molar value. Like-named read-outs stand apart in the source and are kept apart here.

Columns and labels:
[1] = molecular target: T1, Candida albicans dihydrofolate reductase (Candida albicans, UniProt P22906); assay: biochemical; assay type: biochemical; conditions: for inhibition of C. albicans DHFR (in words): dose-response experiments, purified enzyme
T1 construct: The optimized DFR1 ORF was then cloned into pET15b; 6xHis; host or cells: Escherichia coli
T1 sequence (P22906 1-192): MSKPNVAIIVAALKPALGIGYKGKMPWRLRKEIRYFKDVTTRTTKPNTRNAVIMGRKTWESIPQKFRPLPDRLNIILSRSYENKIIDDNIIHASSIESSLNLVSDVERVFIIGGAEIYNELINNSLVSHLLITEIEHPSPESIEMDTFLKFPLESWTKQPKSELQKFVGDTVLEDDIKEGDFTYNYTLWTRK
Text: Finally, we tested a panel of additional antifolates to examine the relationship between their antifungal potencies and capacities to inhibit C. albicans DHFR. The enzyme was purified using a 6×His tag ([45], [46]), and activity was detected by measuring the conversion of NADPH to NADP^+ at an optical density at 340 nm (OD340) ([34]).
The C. albicans DFR1 open reading frame (ORF) sequence was retrieved from the Candida Genome Database ([68]) and was codon optimized for expression in Escherichia coli. The optimized DFR1 ORF was then cloned into pET15b ([69]) to allow propagation and expression of C. albicans Dfr1p in E. coli. Cultures of E. coli transformed with pET15b-CaDfr1p (Biomatik) were grown overnight in LB plus ampicillin. The culture was diluted 1:100 into fresh medium and incubated at 35°C for 6 h; then Dfr1p expression was induced with isopropyl-β-D-thiogalactopyranoside (IPTG) at a final concentration of 0.5 mM for 16 h. Cells were collected by centrifugation and resuspended in binding buffer (6 g/liter Tris base, pH 7.5, 8.8 g/liter NaCl, 1 mM dithiothreitol [DTT], 0.68 g/liter imidazole, 5% glycerol, 1× protease inhibitor). Resuspended cells were lysed with 1 mg/ml chicken white lysozyme (Sigma) for 60 min at 4°C. Then, Triton X-100 and NaCl were added to 0.1% and 0.5 M, respectively. The lysate was then centrifuged, and the supernatant was collected. The supernatant was added to nickel resin beads (Sigma) and incubated at 4°C for 30 min with rotation. The buffer was removed, and the beads were washed twice with binding buffer. Then the beads were suspended in elution buffer (6 g/liter Tris base, pH 7.5, 8.8 g/liter NaCl, 1 mM DTT, 34 g/liter imidazole, 5% glycerol) and incubated at 4°C for 30 min. The elution was removed and then run on SDS-PAGE gels (Sigma) to confirm the presence of CaDfr1p. SDS-PAGE gels were run according to the manufacturer’s protocol.
The enzymatic activity of C. albicans Dfr1p was determined using a dihydrofolate reductase assay (Sigma). The manufacturer’s protocol was adapted to the fungal enzyme by scaling down the volume to 100-μl reaction mixtures with 88 μl of buffer, 6 μl of a 1 mM NADPH stock, 5 μl of a 1 mM DHF stock, and 1 μl of 3-mg/ml purified enzyme. The loss of NADPH was quantified as the decrease in absorption at the OD340 over a 30-min time frame. The IC50 was calculated by converting the change in the OD340 value per minute into the amount of THF produced per minute and then compared to the level in an untreated control.

[2] = system: wild-type C. albicans strain (SC5314); assay: Antifungal susceptibility testing (dose-response growth, OD600); assay type: cell-based, Candida albicans; conditions: for C. albicans growth inhibition (in words): YNB medium, pH 5 and pH 7; for MIC: Candida albicans, SC5314, YNB medium buffered to either pH 5 or 7
Protocol: A wild-type C. albicans strain (SC5314) was seeded at 1 × 10^4 cells/ml into YNB medium without folate or PABA with the indicated supplements and increasing concentrations of MTX. After 48 h of incubation at 30°C, growth was quantified as the OD600 value and expressed as a percentage of the value for the DMSO-treated control. The values presented here are the average of two replicates and are representative of two independent experiments.
Approximately 1 × 10^4 cells/ml of a wild-type C. albicans strain was seeded into a 96-well plate with increasing concentrations of MTX in YNB pH 5, YNB pH 7, and RPMI pH 7 media. After 48 h, the OD600 was measured and expressed as a percentage of the value for the DMSO-treated control. The results presented here are the averages of two replicates and are representative of two independent experiments.
Stock solutions of MTX were prepared at 10 mM in dimethyl sulfoxide (DMSO) and diluted as needed in the same solvent. […] The final concentration of DMSO was 0.5% for all treatments. Plates were then incubated at 30°C before growth was quantified after 24 and 48 h by measuring the OD600 using a Cytation 5 plate reader (Bio-Tek Instruments, Inc.). MIC50 values were identified visually using the CLSI antifungal susceptibility assay and then confirmed by quantifying growth by the OD600 value. The growth of each strain at each drug concentration was then expressed relative to that of the DMSO-alone control. The susceptibility to MTX at the highest concentration at each pH was compared to that of the other pH values using a two-tailed Student's t test.

[3] = system: disseminated Candida infections; conditions: cited from earlier work; for fraction of patients nonresponsive to treatment: patients with disseminated Candida infections
PTET98-DFR1 strain [4] = assay: Passaging of doxycycline-repressible strain in fetal bovine serum; assay type: cell-based; conditions: Candida albicans, read-out: growth inhibition
Protocol: FIG 2 Dfr1p is essential for Candida albicans growth in vitro. A dfr1Δ/PTETO98-DFR1 strain was sequentially passaged in YPD broth (A), YNB broth (B), or fetal bovine serum (C), each supplemented with 5 μg/ml doxycycline (DOX). Following inoculation at approximately 5 × 10^5 cells/ml, each culture was incubated at 30°C for 24 h, and growth was measured after 24 h as the OD600 value. Relative growth was then expressed as a percentage of the untreated control, i.e., without doxycycline. The values presented here are representative of two independent experiments.
A combination of dTMP, adenine, histidine, and methionine, each of which requires folate for its biosynthesis, is sufficient to partially restore S. cerevisiae growth following treatment with antifolates ([36]). However, these supplements were not sufficient to restore C. albicans growth in the presence of MTX (Fig. 3). […] Finally, we examined if C. albicans was able to scavenge sufficient folates or folate-dependent metabolites from blood serum to negate the need for de novo biosynthesis. The PTET98-DFR1 strain was passaged for 3 days in 100% fetal bovine serum (FBS) with or without doxycycline. In the first passage, doxycycline inhibited growth by ∼60%, with increasing growth inhibition seen in subsequent subcultures (Fig. 2C). […]

PTET98-DFR1 strain [5] = assay: Mouse model of disseminated candidiasis; assay type: in vivo, BALB/c mice
Protocol: Next, we determined if DFR1 expression is essential for C. albicans virulence in a mammalian host using a mouse model of disseminated candidiasis. Female BALB/c mice were split into two treatment groups: group 1 was treated with doxycycline in a gel food formulation from 72 h before infection and for the duration of the experiment; group 2 was mock treated using unsupplemented gel food. The mice were then infected with ∼5 × 10^5 yeast cells of the PTET98-DFR1 strain via the lateral tail vein, and their health was monitored for 12 days. […] All mice in the mock-treated group succumbed to the infection by day 7 (Fig. 5A), confirming the virulence of the PTET98-DFR1 strain under nonrepressing conditions. […] On day 12, surviving animals were euthanized, kidneys were extracted and homogenized, and levels of fungal colonization were determined as CFU counts. […] To determine if suppression of Dfr1p activity is sufficient to resolve an established infection, a second experiment was performed in which mice were infected with the PTET98-DFR1 strain, and doxycycline treatment was initiated 24-h postinfection. […] Furthermore, C. albicans is unable to scavenge sufficient sources of folate to survive within mammalian tissue, and de novo biosynthesis is required. Indeed, the antifungal efficacy achieved upon repressing Dfr1p expression appears to be similar to that attained upon suppression of Erg11p expression. Accordingly, DHFR and likely other FOL pathway enzymes can provide potentially efficacious targets for antifungal development.
FIG 5 Dfr1p is essential for Candida albicans virulence in a mouse model of disseminated candidiasis. Groups of BALB/c mice (n = 6) were inoculated with ∼5 × 10^5 CFU of either the dfr1Δ/PTET98-DFR1 strain or the erg11Δ/PTETO-ERG11 strain via the lateral tail vein injections. The Erg11p strain was included to compare the antifungal efficacy of targeting Dfr1p with a previously validated target. The mice were monitored three times daily for 12 days, and those showing signs of distress were humanely euthanized. Mice were treated with 2 mg/g doxycycline (DOX) or mock treated with vehicle alone provided in a gel food formulation from 72 h prior to infection and throughout the duration of the experiment. […].
All animal experiments were done according to protocols approved by the University of Tennessee Institutional Animal Care and Use Committee. Groups of 6- to 8-week-old female BALB/c mice (Charles River Laboratories) were randomly assigned to one of three treatment groups 3 days before infection. Group 1 (minus doxycycline) was provided 20 g of DietGel (clear H2O) per day, per cage of 4 mice, while group 2 (plus doxycycline) was provided the same diet supplemented with 2 mg/ml of doxycycline hyclate. Group 3 (posttreatment) mice were given the DietGel without doxycycline until 24 h after infection and were administered 10 mg/kg of doxycycline through oral gavage at […], 24, and 36 h postinfection. Treatment was maintained daily for the duration of the experiment (up to 12 days postinfection). Each C. albicans strain was grown overnight in YPD cultures at 30°C (200 rpm). Cells were washed twice in sterile endotoxin-free phosphate-buffered saline (PBS), and cell density was determined using a hemocytometer. […] Mice were monitored for 12 days, and those showing distress were euthanized. Survival data were plotted on a Kaplan-Meier curve and analyzed by a log rank (Mantel-Cox) test using GraphPad Prism, version 8.00. […]

[6] = doxycycline treatment initiated 24-h postinfection

## Nc1nc2[nH]cc(CCc3ccc(C(=O)N[C@@H](CCC(=O)O)C(=O)O)cc3)c2c(=O)[nH]1 [Pemetrexed, pemetrexed]
[1]
  pIC50: 6.00
  inhibition of C. albicans DHFR (in words): inhibited C. albicans DHFR activity
[2]
  C. albicans growth inhibition (in words): antifungal activity at pH 5 but not at pH 7

## [H]/N=C(\N/C(=N/[H])Nc1ccc(Cl)cc1)NC(C)C [Proguanil, proguanil]
[1]
  inhibition of C. albicans DHFR (in words): lacked activity
[1]; purified C. albicans DHFR (6×His tag), read-out: IC50
  pIC50: < 5.00
[2]
  MIC: > 25 µM

## CCc1nc(N)nc(N)c1-c1ccc(Cl)cc1 [Pyrimethamine, pyrimethamine]
[1]
  pIC50: 7.00
  inhibition of C. albicans DHFR (in words): inhibited C. albicans DHFR activity
[2]
  C. albicans growth inhibition (in words): failed to inhibit C. albicans growth at either pH

## COc1cc(Cc2cnc(N)nc2N)cc(OC)c1OC [Trimethoprim, trimethoprim]
[2]
  MIC: > 25 µM

## C[C@@H]1[C@H](O)[C@@H](C)/C=C/C=C/C=C/C=C/C=C/C=C/C=C/[C@H](O[C@@H]2O[C@H](C)[C@@H](O)[C@H](N)[C@@H]2O)C[C@@H]2O[C@](O)(C[C@@H](O)C[C@@H](O)[C@H](O)CC[C@@H](O)C[C@@H](O)CC(=O)O[C@H]1C)C[C@H](O)[C@H]2C(=O)O [amphotericin B]
[3]; patients with disseminated candidiasis
  favorable response rate: 62%

## C[C@H]1c2cccc(O)c2C(=O)C2=C(O)[C@]3(O)C(=O)C(C(N)=O)=C(O)[C@@H](N(C)C)[C@@H]3[C@@H](O)[C@@H]21 [doxycycline]
PTET98-DFR1 strain [4]
  inhibition at 5 µg/mL: ~60%
PTET98-DFR1 strain [5]; doxycycline from 72 h before infection
  kidney fungal colonization (CFU) on day 12: 5 of the 8 surviving mice had undetectable levels of fungal colonization
PTET98-DFR1 strain [5]; doxycycline in gel food from 72 h before infection, monitored 12 days
  survival: all doxycycline-treated mice survived for the duration of the experiment
PTET98-DFR1 strain [5]; [6]
  kidney fungal colonization at end of experiment: Half of these mice had undetectable levels of fungal colonization
  time to resolution of initial symptoms: ≤ 6 days
PTET98-DFR1 strain [5]; doxycycline treatment initiated 24-h postinfection, to day 12 postinfection
  survival: all mice survived the duration of the experiment

## OC(Cn1cncn1)(Cn1cncn1)c1ccc(F)cc1F [fluconazole]
[3]
  fraction of patients nonresponsive to treatment: approximately one-third

## C[C@@H](c1nc(-c2ccc(C#N)cc2)cs1)[C@](O)(Cn1cncn1)c1cc(F)ccc1F [isavuconazole]
[3]
  fraction of patients nonresponsive to treatment: approximately one-third

## C[C@@H](c1ncncc1F)[C@](O)(Cn1cncn1)c1ccc(F)cc1F [voriconazole]
[3]
  fraction of patients nonresponsive to treatment: approximately one-third
